Patent publication US20190137505A1 (THE ARIZONA BOARD OF REGENTS ON BEHALF OF THE UNIVERSITY OF …, priority 2015, published 2019)

Experiment: LC-MS/MS MRM quantitation of metformin-MG imidazolinone and metformin in human urine
Type: in vivo
Experimental: An Agilent (Palo Alto, Calif.) 1260 liquid chromatograph was utilized for achieving gradient separation using an Agilent ZORBAX Hilic Plus (2.1×50 mm) column with a 1.8 μm packing size held at 30° C. throughout the separation. A 5 μL injection of urine diluted 1:200 in Milli-Q water and snap filtered ([…] eXtreme® Filter Vial 0.2 um PVDF; Thomson, Oceanside, Calif.) was used for all samples. A binary gradient consisting of 15 mM ammonium acetate in water (A) and acetonitrile (B) at a flow rate of 300 μL/min was used. […] After this, a linear gradient was maintained to achieve 35% B at 9 min which was held for another minute. At 10 min, another linear change was applied to get to the initial condition of 95% B at 11 min. A post-time of three min was used to re-equilibriate the column before the next analysis. The total analysis time was 14 min per sample. Mass spectrometry was performed using an Agilent 6490 triple-quadrupole mass spectrometer with an electrospray ionization (ESI) source. […] After this was determined, the mass spectrometer was operated in product ion scan mode and the most abundant product ions were selected. […] Once the product ions were determined, the collision energy (CE) and cell accelerator voltage (CAV) were optimized for each transition. […]

IMZ in urine of MF-treated T2DM patients (all MF-treated T2DM patients): detected | Levels of the MF-MG adduct detectable in urine (human diabetic subjects on MF treatment): up to 4.32 μM/specific gravity
SMILES: CC1NC(/N=C(\N)N(C)C)=NC1=O (centres unmarked) [IMZ, (E)-1,1-dimethyl-2-(5-methyl-4-oxo-4,5-dihydro-1H-imidazol-2-yl)guanidine]
